Columns and labels:
[1] = tested on: A549 human lung adenocarcinoma cells; assay: MTT cytotoxicity assay, A549; type: cell-based; conditions: for IC50: Homo sapiens, A549, MTT, 24 h, read-out: IC50 A549 Cell Line; for cytotoxicity (in words): A549, at the concentrations used
Protocol: (§1) C6 Rat glioma and NIH/3T3 mouse embryonic fibroblast cells were incubated in Dulbecco’s Modified Eagle’s Medium (DMEM) (Sigma, Deisenhofen, Germany) supplemented with 10% fetal calf serum (Gibco, Paisley, UK). A549 Human lung adenocarcinoma cells were incubated in 90% RPMI supplemented with 10% fetal bovine serum (Gibco). […] Exponentially growing cells were plated at 2 × 10^4 cells/mL into 96-well microtiter tissue culture plates (Nunc, Roskilde, Denmark) and incubated for 24 h before the addition of the drugs (the optimum cell number for cytotoxicity assays was determined in preliminary experiments).
(§2) The level of cellular 3-(4,5-dimethylthiazol-2-yl)-2,5-diphenyltetrazolium bromide (MTT) (Sigma) reduction was quantified as previously described in the literature with small modifications. […] At the end of this period, MTT was added to a final concentration of 0.5 mg/mL and the cells were incubated for 4 h at 37 °C. After the medium was removed, the formazan crystals formed by MTT metabolism were solubilized by addition of 200 µL DMSO to each well and absorbance was read at 540 nm with a microtiter plate spectrophotometer (Bio-Tek Plate Reader, Winooski, VT, USA). Every concentration was repeated in three wells.

C6 rat glioma cells = assay: MTT cytotoxicity assay, C6; type: cell-based; conditions: for IC50: Rattus norvegicus, C6, MTT, 24 h, read-out: IC50 C6 Cell Line; for cytotoxicity (in words): C6, at the concentrations used
Protocol: as §1, §2

[2] = tested on: NIH/3T3 mouse embryonic fibroblast cells; assay: MTT cytotoxicity assay, NIH/3T3; type: cell-based; conditions: NIH3T3, 24 h, read-out: IC50 NIH/3T3 Cell Line
Protocol: C6 Rat glioma and NIH/3T3 mouse embryonic fibroblast cells were incubated in Dulbecco’s Modified Eagle’s Medium (DMEM) (Sigma, Deisenhofen, Germany) supplemented with 10% fetal calf serum (Gibco, Paisley, UK). A549 Human lung adenocarcinoma cells were incubated in 90% RPMI supplemented with 10% fetal bovine serum (Gibco). All media were supplemented with 100 IU/mL penicillin-streptomycin (Gibco) and cells were incubated at 37 °C in a humidified atmosphere of 95% air and 5% CO2. Exponentially growing cells were plated at 2 × 10^4 cells/mL into 96-well microtiter tissue culture plates (Nunc, Roskilde, Denmark) and incubated for 24 h before the addition of the drugs (the optimum cell number for cytotoxicity assays was determined in preliminary experiments). The stock solutions of the compounds were prepared in dimethyl sulfoxide (DMSO; Sigma Aldrich, Poole, UK) and further dilutions were made with fresh culture medium (the concentration of DMSO in the final culture medium was <0.1% which had no effect on the cell viability).
as §2

A549 cells [3] = assay: DNA synthesis inhibition (BrdU ELISA), A549; type: cell-based, human; conditions: A549, compound at its IC50, 24 h
Protocol: (§3) The immunostaining procedure was carried out with specific anti-BrdU antibodies in the S-phase of the cell cycle. DNA synthesis inhibitory effects of all compounds were evaluated for 24 h. A549 and C6 cell lines were incubated with three different concentrations of the compounds that were determined according to their IC50 values. Cisplatin was used as a positive control.
(§4) Analysis of DNA synthesis was measured by a Cell Proliferation ELISA, BrdU (colorimetric) kit (Roche, Mannheim, Germany). This immunostaining procedure is based on measuring the incorporation of bromodeoxyuridine (BrdU) into nuclear DNA in place of thymidine during the S-phase of the cell cycle using specific anti-BrdU antibodies. […] Firstly cells were seeded into 96 well flat-bottomed microtiter plates at a density of 2 × 10^3. […] Microtiter plates were incubated at 37 °C in a 5% CO2/95% air humidified atmosphere for 24 h. Cells were labeled with 10 µL BrdU solution for 2 h and then fixed. Anti-BrdU-POD (100 µL) was added and incubated for 90 min. Finally, wells were washed with BPS and cells were incubated with substrate. Absorbance of the samples was measured with an ELX808-IU Bio-Tek apparatus at 492 nm. All experiments were repeated two times. For each compound dose, dublicate wells were used.

C6 cells [4] = assay: DNA synthesis inhibition (BrdU ELISA), C6; type: cell-based, rat; conditions: C6, compound at its IC50, 24 h
Protocol: as §3, §4

AChE = AChE (Electrophorus electricus, UniProt O42275); assay: biochemical; type: biochemical; conditions: for IC50: tested at 5–80 μg/mL
BuChE = BuChE (Homo sapiens, UniProt P06276); assay: BuChE inhibition, modified Ellman's method; type: biochemical; conditions: for IC50: tested at 5–80 μg/mL
A549 cells [5] = assay: Annexin V-PI flow cytometry of apoptosis, A549; type: cell-based; conditions: IC50 dose, 24 h
Protocol: (§5) Annexin V staining protocol was applied according to the manufacturer’s instructions (BD Pharmingen). The cells were then briefly washed with cold phosphate buffer saline (PBS) and suspended in a binding buffer at a concentration of 1 × 10^6 cells/mL. Then, 100 µL of this solution containing 1 × 10^5 cells was transferred to a 5 mL test tube. After 5 µL of Annexin-V and PI was added, the cells were incubated for 15 min at room temperature in the dark. Then 400 µL of 1x Binding Buffer was added to each tube and the cells were processed for data acquisition, and analyzed on a Becton–Dickinson FACS Aria using […] Version 6.1.1. Software (BD Biosciences, San Jose, CA, USA).

C6 cells [6] = assay: Annexin V-PI flow cytometry of apoptosis, C6; type: cell-based; conditions: IC50 dose, 24 h
Protocol: as §5

A549 cells [7] = assay: Mitochondrial membrane potential (JC-1) flow cytometry, A549; type: cell-based, human; conditions: IC50 dose, 24 h
Protocol: (§6) During apoptosis, several key events occur in mitochondria including the release of cytochrome c, changes in electron transport, and loss of mitochondrial transmembrane potential (ΔΨm). For this reason, ΔΨm is an important parameter of mitochondrial function in apoptosis.
(§7) The cells were seeded in six-well plates at a density of 10^5 cells/mL, and the IC50 dose of compounds 2, 5 and 10 was added to cells. The cells were incubated in 5% CO2 air-conditioned atmosphere at 37 °C. […] 5,5′,6,6′-Tetrachloro-1,1′,3,3′-tetraethylbenzimidazolylcarbocyanine iodide (JC-1) dye solution (1× assay buffer + JC-1 stock solution) was added to the cells. The stock solution was prepared by dissolving DMSO. Then the samples were incubated at a temperature of 37 °C for 10–15 min. After incubation, the cells were washed twice with an assay buffer and analyzed by BD FACS Aria Cell Sorter Software version 6.1.1 flow cytometry (BD Biosciences). The cells showing mitochondrial membrane potential disruption were determined as a percentage of all cells.

C6 cells [8] = assay: Mitochondrial membrane potential (JC-1) flow cytometry, C6; type: cell-based, rat; conditions: IC50 dose, 24 h
Protocol: as §6, §7

Chain of BuChE (P06276 29-602): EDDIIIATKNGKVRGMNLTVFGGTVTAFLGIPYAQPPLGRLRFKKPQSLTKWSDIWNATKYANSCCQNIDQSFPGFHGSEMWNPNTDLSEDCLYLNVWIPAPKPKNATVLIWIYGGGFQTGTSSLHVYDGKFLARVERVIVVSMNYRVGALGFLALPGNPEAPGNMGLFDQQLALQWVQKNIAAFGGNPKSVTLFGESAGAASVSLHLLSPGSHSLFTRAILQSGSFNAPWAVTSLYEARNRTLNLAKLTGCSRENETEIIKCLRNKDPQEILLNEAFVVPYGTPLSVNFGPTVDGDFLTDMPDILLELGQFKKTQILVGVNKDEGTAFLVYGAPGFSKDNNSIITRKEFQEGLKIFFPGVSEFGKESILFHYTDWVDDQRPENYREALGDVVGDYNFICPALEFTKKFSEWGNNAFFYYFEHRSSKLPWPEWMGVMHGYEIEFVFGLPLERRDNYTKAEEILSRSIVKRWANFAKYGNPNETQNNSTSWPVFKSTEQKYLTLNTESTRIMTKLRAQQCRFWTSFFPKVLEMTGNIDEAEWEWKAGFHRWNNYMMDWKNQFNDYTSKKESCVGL
Chain of AChE (O42275 24-633): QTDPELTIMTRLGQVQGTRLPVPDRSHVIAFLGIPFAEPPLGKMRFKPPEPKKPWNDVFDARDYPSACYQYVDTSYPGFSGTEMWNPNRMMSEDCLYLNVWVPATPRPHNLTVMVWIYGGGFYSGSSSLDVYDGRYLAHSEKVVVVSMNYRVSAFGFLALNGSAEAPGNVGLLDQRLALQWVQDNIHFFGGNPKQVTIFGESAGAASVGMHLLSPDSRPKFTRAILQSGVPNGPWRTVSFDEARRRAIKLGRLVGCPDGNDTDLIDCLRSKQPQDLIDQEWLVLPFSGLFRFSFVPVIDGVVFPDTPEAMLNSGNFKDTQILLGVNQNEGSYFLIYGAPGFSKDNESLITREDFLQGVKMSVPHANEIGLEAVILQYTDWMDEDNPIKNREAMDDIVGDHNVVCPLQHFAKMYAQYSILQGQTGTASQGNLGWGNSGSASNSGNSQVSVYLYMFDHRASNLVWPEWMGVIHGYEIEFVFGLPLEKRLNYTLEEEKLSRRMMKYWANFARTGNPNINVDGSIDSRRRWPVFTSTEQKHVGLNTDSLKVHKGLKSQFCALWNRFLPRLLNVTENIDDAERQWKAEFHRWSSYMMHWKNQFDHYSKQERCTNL

N#Cc1ccc(C=NNC(=S)Nc2ccc3c(c2)OCO3)cc1 [Compound 3, 4-(1,3-Benzodioxole-5-yl)-1-(4-cyanobenzylidene)thiosemicarbazide]
IC50 [1]: 28 ± 1 µM
IC50 (C6 rat glioma cells): 49.3 ± 1.15 µM
IC50 [2]: > 154 µM
DNA synthesis inhibition percent (A549 cells [3]): 53.24%
DNA synthesis inhibition percent (C6 cells [4]): 54.99%
inhibitory activity against AChE (in words) (AChE): did not show any inhibitory activity
IC50 (AChE): > 213 µM
IC50 (BuChE): > 213 µM

CN(C)c1ccc(C=NNC(=S)Nc2ccc3c(c2)OCO3)cc1 [Compound 4, 4-(1,3-Benzodioxole-5-yl)-1-(4-dimethylaminobenzylidene)thiosemicarbazide]
cytotoxicity (in words) [1]: no significant cytotoxicity
IC50 [1]: > 146 µM
cytotoxicity (in words) (C6 rat glioma cells): no significant cytotoxicity
IC50 (C6 rat glioma cells): > 146 µM
IC50 [2]: > 146 µM
IC50 (AChE): > 234 µM
IC50 (BuChE): > 213 µM

S=C(NN=Cc1ccc(Br)cc1)Nc1ccc2c(c1)OCO2 [Compound 8, 4-(1,3-Benzodioxole-5-yl)-1-(4-bromobenzylidene)thiosemicarbazide]
cytotoxicity (in words) [1]: no significant cytotoxicity
IC50 [1]: > 132 µM
cytotoxicity (in words) (C6 rat glioma cells): no significant cytotoxicity
IC50 (C6 rat glioma cells): > 132 µM
IC50 [2]: 9.16 ± 2.47 µM
IC50 (AChE): > 212 µM
inhibition on BuChE (in words) (BuChE): weak inhibition
IC50 (BuChE): > 212 µM

S=C(NN=Cc1ccc(Cl)c(Cl)c1)Nc1ccc2c(c1)OCO2 [Compound 9, 4-(1,3-Benzodioxole-5-yl)-1-(3,4-dichlorobenzylidene)thiosemicarbazide]
IC50 [1]: 51.5 ± 4.95 µM
IC50 (C6 rat glioma cells): 25.3 ± 1.53 µM
IC50 [2]: > 136 µM
DNA synthesis inhibition percent (A549 cells [3]): 27.3%
DNA synthesis inhibition percent (C6 cells [4]): 37.71%
IC50 (AChE): 205 ± 5 µM
IC50 (BuChE): > 213 µM

S=C(NN=Cc1ccc(Cl)cc1)Nc1ccc2c(c1)OCO2 [Compound 7, 4-(1,3-Benzodioxole-5-yl)-1-(4-chlorobenzylidene)thiosemicarbazide]
cytotoxicity (in words) [1]: no significant cytotoxicity
IC50 [1]: > 150 µM
cytotoxicity (in words) (C6 rat glioma cells): no significant cytotoxicity
IC50 (C6 rat glioma cells): > 150 µM
IC50 [2]: 9.5 ± 2.5 µM
IC50 (AChE): > 240 µM
inhibition on BuChE (in words) (BuChE): weak inhibition
IC50 (BuChE): > 240 µM

Fc1ccc(C=NNC(=S)Nc2ccc3c(c2)OCO3)cc1 [Compound 6, 4-(1,3-Benzodioxole-5-yl)-1-(4-fluorobenzylidene)thiosemicarbazide]
cytotoxicity (in words) [1]: no significant cytotoxicity
IC50 [1]: > 158 µM
cytotoxicity (in words) (C6 rat glioma cells): no significant cytotoxicity
IC50 (C6 rat glioma cells): > 158 µM
IC50 [2]: 2.87 ± 0.05 µM
IC50 (AChE): > 252 µM
IC50 (BuChE): > 213 µM

S=C(N/N=C/c1cc2c(cc1Br)OCO2)Nc1ccc2c(c1)OCO2 [Compound 10]
IC50 [1]: 29.7 ± 5.51 µM
IC50 (C6 rat glioma cells): 12.3 ± 4.93 µM
IC50 [2]: 38.3 ± 2.08 µM
DNA synthesis inhibition percent (A549 cells [3]): 56.38%
DNA synthesis inhibition percent (C6 cells [4]): 53.96%
Early and Late Apoptotic Cells % A549 Cells (A549 cells [5]): 6.2%
Viability % A549 Cells (A549 cells [5]): 81.2%
Early and Late Apoptotic Cells % C6 Cells (C6 cells [6]): 15.8%
Viability % C6 Cells (C6 cells [6]): 69.6%
P2 (%) mitochondrial membrane polarized cells, A549 Cells (A549 cells [7]): 21.9%
P3 (%) mitochondrial membrane depolarized cells, A549 Cells (A549 cells [7]): 57.9%
P2 (%) mitochondrial membrane polarized cells, C6 Cells (C6 cells [8]): 35.1%
P3 (%) mitochondrial membrane depolarized cells, C6 Cells (C6 cells [8]): 63.7%
IC50 (AChE): 108 ± 3.53 µM
inhibition on BuChE (in words) (BuChE): weak inhibition
IC50 (BuChE): > 189 µM

S=C(NN=Cc1ccc(-c2ccccc2)cc1)Nc1ccc2c(c1)OCO2 [Compound 5, 4-(1,3-Benzodioxole-5-yl)-1-[(biphenyl-4-yl)methylene]thiosemicarbazide]
IC50 [1]: 10.7 ± 1.53 µM
IC50 (C6 rat glioma cells): 4.33 ± 1.04 µM
IC50 [2]: 21.3 ± 5.77 µM
DNA synthesis inhibition percent (A549 cells [3]): 57.79%
DNA synthesis inhibition percent (C6 cells [4]): 62.98%
Early and Late Apoptotic Cells % A549 Cells (A549 cells [5]): 12.11%
Viability % A549 Cells (A549 cells [5]): 81.8%
Early and Late Apoptotic Cells % C6 Cells (C6 cells [6]): 25.0%
Viability % C6 Cells (C6 cells [6]): 60.2%
P2 (%) mitochondrial membrane polarized cells, A549 Cells (A549 cells [7]): 52.7%
P3 (%) mitochondrial membrane depolarized cells, A549 Cells (A549 cells [7]): 24.6%
P2 (%) mitochondrial membrane polarized cells, C6 Cells (C6 cells [8]): 49.8%
P3 (%) mitochondrial membrane depolarized cells, C6 Cells (C6 cells [8]): 45.0%
inhibitory activity against AChE (in words) (AChE): did not show any inhibitory activity
IC50 (AChE): > 213 µM
IC50 (BuChE): > 213 µM

S=C(NN=Cc1ccccc1)Nc1ccc2c(c1)OCO2 [Compound 1, 4-(1,3-Benzodioxole-5-yl)-1-(benzylidene)thiosemicarbazide]
cytotoxicity (in words) [1]: no significant cytotoxicity
IC50 [1]: > 167 µM
cytotoxicity (in words) (C6 rat glioma cells): no significant cytotoxicity
IC50 (C6 rat glioma cells): > 167 µM
IC50 [2]: > 167 µM
IC50 (AChE): > 267 µM
IC50 (BuChE): > 213 µM

O=[N+]([O-])c1ccc(C=NNC(=S)Nc2ccc3c(c2)OCO3)cc1 [Compound 2, 4-(1,3-Benzodioxole-5-yl)-1-(4-nitrobenzylidene)thiosemicarbazide]
IC50 [1]: 24 ± 3.46 µM
IC50 (C6 rat glioma cells): 23.3 ± 2.08 µM
IC50 [2]: > 145 µM
DNA synthesis inhibition percent (A549 cells [3]): 59.85%
DNA synthesis inhibition percent (C6 cells [4]): 63.34%
Early and Late Apoptotic Cells % A549 Cells (A549 cells [5]): 23.7%
Viability % A549 Cells (A549 cells [5]): 75.2%
Early and Late Apoptotic Cells % C6 Cells (C6 cells [6]): 5.4%
Viability % C6 Cells (C6 cells [6]): 94.5%
P2 (%) mitochondrial membrane polarized cells, A549 Cells (A549 cells [7]): 4.5%
P3 (%) mitochondrial membrane depolarized cells, A549 Cells (A549 cells [7]): 9.8%
P2 (%) mitochondrial membrane polarized cells, C6 Cells (C6 cells [8]): 44.8%
P3 (%) mitochondrial membrane depolarized cells, C6 Cells (C6 cells [8]): 21.1%
IC50 (AChE): > 232 µM
IC50 (BuChE): > 213 µM

Source: PMC6273715, “Synthesis and Evaluation of New Benzodioxole- Based Thiosemicarbazone Derivatives as Potential Antitumor Agents” (Molecules, 2016)
